Test in all cases: NCI tumour cell line growth inhibition, 48 h
Experiment [1] relates to A549.
For experiment [2], the system named is ACHN.
Experiment [3] concerns EKVX.
The subject of experiment [4] is IGROV-1.
Experiment [5] concerns LOX IMVI.
Experiment [6] relates to MOLT-4.
Experiment [7] relates to NCI-H522.
Experiment [8] concerns OVCAR-4.
Experiment [9] concerns RXF 393.
Experiment [10] relates to SF-268.
Experiment [11] concerns SK-MEL-2.
The subject of experiment [12] is SK-MEL-5.
Experiment [13] has as its system SK-OV-3.
Experiment [14] relates to SN12C.
In experiment [15] the test system is SW-620.
Experiment [16] concerns TK-10.
Experiment [17] relates to CAKI-1.
The subject of experiment [18] is KM12.
The test system of experiment [19] is SF-295.

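Cultured in 96-well plates, cells were exposed to test compound for 48 hours across five concentrations. GI50: concentration for 50% inhibition of growth.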 Active and inactive are the calls of the source. Cut-off read from the data, not from the text of the source: active = GI50 up to about 1.1 µM and inactive = higher.

This is an account of results in ChEMBL document CHEMBL1201862, “PubChem BioAssay data set” (2004).

Consider `O=C1N(C2CCCCC2)CC12CCCCC2`, for which the GI50 in experiment [1], in experiment [2], in [3], in experiment [4], in experiment [5] and in experiment [6] was > 100 µM (inactive) throughout. The GI50 in experiment [7], in experiment [8], in experiment [9], in experiment [10], in experiment [11] and in experiment [12] was > 100 µM (inactive) throughout. Further, the GI50 in experiment [13], in experiment [14], in experiment [15] and in experiment [16] was > 100 µM (inactive) throughout.
In the case of `CCOC(=O)/C(=C/c1ccc[nH]1)P(=O)(OCC)OCC`, the GI50 in experiment [1], in [2], in experiment [17], in [3], in [18] and in [5] was > 100 µM (inactive) each time. The GI50 in experiment [6], in experiment [7], in experiment [8], in [9], in experiment [10] and in experiment [19] was > 100 µM (inactive) in each case. For the same compound, the GI50 in experiment [11], in experiment [12], in [13], in experiment [14], in experiment [15] and in [16] was > 100 µM (inactive) throughout.
`O=C1NC2OCC(O)C(O1)C2O` (configuration not stated): the GI50 in [2], in experiment [17], in [3], in experiment [4], in experiment [18] and in experiment [5] was > 100 µM (inactive) each time. Also, the GI50 in experiment [6], in experiment [7], in experiment [8], in experiment [9], in [10] and in experiment [19] was > 100 µM (inactive) throughout. In addition, the GI50 in [11], in [12], in experiment [13], in experiment [14], in experiment [15] and in [16] was > 100 µM (inactive) in each case.
For `C[C@]12CC[C@H](OC3CCCCO3)CC1=CC[C@@H]1C2CC[C@]2(C)/C(=N/OCCC#N)CCC12` (some centres not stated), the GI50 was 26.8 µM (inactive) in [1]; 33.8 µM (inactive) in [2]; 45.8 µM (inactive) in experiment [17]; 19.2 µM (inactive) in [3]; > 100 µM (inactive) in [4]; > 100 µM (inactive) in experiment [18]. In addition, the GI50 is 6.38 µM (inactive) in experiment [5]; 18.5 µM (inactive) in experiment [7]; 18.9 µM (inactive) in experiment [8]; 16 µM (inactive) in experiment [9]; 21.3 µM (inactive) in [19]; 56.2 µM (inactive) in experiment [11]. Further, the GI50 in experiment [12] was 7.74 µM (inactive); in experiment [13] it was 37.5 µM (inactive); in experiment [14] it was 64.7 µM (inactive); in experiment [15], > 100 µM (inactive); in experiment [16] it was 24 µM (inactive).
As for `C=C1COC(/C=C(\C)CC/C=C(\C)CCl)C1` (configuration not stated), the GI50 in [1], in experiment [2], in [3], in experiment [4], in experiment [18] and in experiment [5] was > 100 µM (inactive) each time. In addition, the GI50 in experiment [6], in experiment [7], in experiment [8], in [9], in experiment [10] and in [19] was > 100 µM (inactive) each time. For the same compound, the GI50 in experiment [11], in [12], in [13], in experiment [14], in experiment [15] and in experiment [16] was > 100 µM (inactive) each time.
`Cc1ccccc1N1C(=O)C2C=CC(n3[nH]c(=O)n(Cc4ccccc4)c3=O)CC2C1=O` (configuration not stated): the GI50 in [1], in experiment [2], in experiment [17], in [3], in [4] and in experiment [18] was > 100 µM (inactive) each time. Besides, the GI50 in [5], in experiment [6], in experiment [7], in experiment [9], in experiment [10] and in [19] was > 100 µM (inactive) each time. In addition, the GI50 in experiment [11], in [12], in experiment [13], in experiment [14], in experiment [15] and in experiment [16] was > 100 µM (inactive) throughout.
Take `CCOc1ccc(NC(=O)C(=O)CC(=O)c2c(C)[n+]([O-])c3ccccc3[n+]2[O-])cc1`: the GI50 in experiment [1], in experiment [2], in experiment [17], in experiment [3], in experiment [4] and in experiment [18] was > 100 µM (inactive) each time. Further, the GI50 in [5] was > 100 µM (inactive); in [6] it was 81.5 µM (inactive); in [7] it was > 100 µM (inactive); in experiment [8], > 100 µM (inactive); in [9] it was > 100 µM (inactive); in experiment [10] it was > 100 µM (inactive). The GI50 in experiment [19], in [11], in experiment [12], in experiment [13], in experiment [14] and in [15] was > 100 µM (inactive) in each case. Besides, the GI50 in [16] is > 100 µM (inactive).
Consider `CC(=O)/C=C1\CC(=O)N(C)c2ccccc2N1`, for which the GI50 in [1], in [17], in experiment [3], in [4], in [18] and in experiment [5] was > 100 µM (inactive) each time. Moreover, the GI50 in experiment [6], in [7], in experiment [8], in experiment [9], in [10] and in [19] was > 100 µM (inactive) in each case. Further, the GI50 in experiment [11] is > 100 µM (inactive); in [12] it was 0.57 µM (active); in experiment [13] it was > 100 µM (inactive); in experiment [14], > 100 µM (inactive); in experiment [15], > 100 µM (inactive); in experiment [16], > 100 µM (inactive).
With `CCCCCCCC(=O)OCC1OC(n2cc(F)c(=O)[nH]c2=O)C(NC(=O)OCc2ccccc2)C(OC(=O)CCCCCCC)C1O` (configuration not stated), the GI50 in [1] is 25.1 µM (inactive); in experiment [2], 39.2 µM (inactive); in experiment [17] it was 19.2 µM (inactive); in [3], 42.5 µM (inactive); in experiment [4], > 100 µM (inactive); in [18] it was 35.3 µM (inactive). For the same compound, the GI50 in experiment [5] is 15.1 µM (inactive); in experiment [6], 9.93 µM (inactive); in [7] it was 16.7 µM (inactive); in [8], 10.5 µM (inactive); in experiment [9] it was 20.2 µM (inactive); in experiment [10], 29 µM (inactive). The GI50 in experiment [19] was 57 µM (inactive); in [11] it was 21.6 µM (inactive); in experiment [12], 0.309 µM (active); in experiment [13], > 100 µM (inactive); in experiment [14], 14.1 µM (inactive); in [15], 35 µM (inactive). For the same compound, the GI50 in [16] was 38 µM (inactive).
In the case of `CC(C)C(=O)/C=C/c1ccc(Br)cc1`, the GI50 in experiment [1] was 23.8 µM (inactive); in [2], 12.7 µM (inactive); in [3], 24 µM (inactive); in experiment [4] it was 19.2 µM (inactive); in [18], 13.8 µM (inactive); in experiment [5] it was 17.3 µM (inactive). Moreover, the GI50 was 19.2 µM (inactive) in experiment [6]; 12.2 µM (inactive) in [7]; 25.4 µM (inactive) in [8]; 18.3 µM (inactive) in experiment [9]; 23 µM (inactive) in experiment [10]; 15.5 µM (inactive) in experiment [19]. Also, the GI50 in experiment [11] was 16.1 µM (inactive); in experiment [12] it was 12.7 µM (inactive); in [13] it was 22.3 µM (inactive); in experiment [14], 14.1 µM (inactive); in [15] it was 5.51 µM (inactive); in [16], 16.9 µM (inactive).
Turning to `COc1ccc(C2C3C(=O)C=CC(=O)C3[C@@H]2C)cc1OC` (some centres not stated), the GI50 in experiment [1] was > 100 µM (inactive); in [2], 47.6 µM (inactive); in [17], > 100 µM (inactive); in experiment [3], > 100 µM (inactive); in experiment [4], > 100 µM (inactive); in experiment [18], > 100 µM (inactive). The GI50 is 42.3 µM (inactive) in experiment [5]; 36 µM (inactive) in experiment [6]; 17.5 µM (inactive) in [7]; > 100 µM (inactive) in experiment [8]; > 100 µM (inactive) in experiment [9]; > 100 µM (inactive) in experiment [10]. Besides, the GI50 in experiment [19] is > 100 µM (inactive); in [11], > 100 µM (inactive); in experiment [12] it was > 100 µM (inactive); in [13] it was > 100 µM (inactive); in [15] it was 42.1 µM (inactive); in experiment [16], > 100 µM (inactive).
